# In ChEMBL document CHEMBL1201862, “PubChem BioAssay data set” (2004):
# Activity calls are given as the source filed them.
# How the values were obtained:
# [1] = molecular target: T1, Corticotropin-releasing factor receptor 2/Corticotropin-releasing factor-binding protein (Homo sapiens, UniProt P24387+Q13324); test: Dose Response confirmation of uHTS hits for small molecule antagonists of the CRF-binding protein and CRF-R2 receptor complex.; format: functional; conditions: read-out: IC50_Mean
# T1 sequence (Q13324 whole entry): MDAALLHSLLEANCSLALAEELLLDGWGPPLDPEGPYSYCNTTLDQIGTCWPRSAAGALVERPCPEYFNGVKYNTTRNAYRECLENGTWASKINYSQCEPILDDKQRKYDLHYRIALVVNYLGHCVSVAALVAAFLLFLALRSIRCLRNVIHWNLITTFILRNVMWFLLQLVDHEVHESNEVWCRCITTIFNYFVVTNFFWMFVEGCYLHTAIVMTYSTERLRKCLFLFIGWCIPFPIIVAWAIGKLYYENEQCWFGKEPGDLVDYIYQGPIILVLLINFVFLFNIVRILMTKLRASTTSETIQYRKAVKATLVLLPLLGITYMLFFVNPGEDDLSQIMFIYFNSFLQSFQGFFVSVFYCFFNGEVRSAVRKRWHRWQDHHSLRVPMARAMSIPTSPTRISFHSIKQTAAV
# T1 sequence (P24387 whole entry): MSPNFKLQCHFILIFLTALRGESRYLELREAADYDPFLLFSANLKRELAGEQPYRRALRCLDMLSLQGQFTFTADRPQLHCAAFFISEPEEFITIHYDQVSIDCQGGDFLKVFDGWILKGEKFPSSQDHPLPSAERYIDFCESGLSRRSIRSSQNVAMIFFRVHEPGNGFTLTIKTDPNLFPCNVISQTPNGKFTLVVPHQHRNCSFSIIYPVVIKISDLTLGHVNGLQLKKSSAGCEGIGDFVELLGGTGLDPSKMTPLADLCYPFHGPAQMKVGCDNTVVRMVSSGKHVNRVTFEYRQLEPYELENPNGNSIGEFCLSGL
# [2] = molecular target: Arf-GAP with SH3 domain, ANK repeat and PH domain-containing protein 1 (Homo sapiens, UniProt Q9ULH1); format: functional;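 also: biochemical fluorescence polarization dose–response screen measuring inhibition of ASAP1; ASAP1 GAP domain stimulating GTP hydrolysis by truncated human ARF1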
# [3] = molecular target: T1, Corticotropin-releasing factor receptor 2/Corticotropin-releasing factor-binding protein; test: activators of CRF receptor 2 with binding protein – uHTS hits, confirmation (AID 602473); format: functional; conditions: read-out: EC50_Mean
# [4] = molecular target: T2, DNA repair and recombination protein RAD54-like (Homo sapiens, UniProt Q92698); test: inhibitors of human RAD54 branch migration, confirmation, biochemical, fluorescence, cherry-picked samples, dose series (AID 651657); format: functional
# T2 sequence (Q92698 whole entry): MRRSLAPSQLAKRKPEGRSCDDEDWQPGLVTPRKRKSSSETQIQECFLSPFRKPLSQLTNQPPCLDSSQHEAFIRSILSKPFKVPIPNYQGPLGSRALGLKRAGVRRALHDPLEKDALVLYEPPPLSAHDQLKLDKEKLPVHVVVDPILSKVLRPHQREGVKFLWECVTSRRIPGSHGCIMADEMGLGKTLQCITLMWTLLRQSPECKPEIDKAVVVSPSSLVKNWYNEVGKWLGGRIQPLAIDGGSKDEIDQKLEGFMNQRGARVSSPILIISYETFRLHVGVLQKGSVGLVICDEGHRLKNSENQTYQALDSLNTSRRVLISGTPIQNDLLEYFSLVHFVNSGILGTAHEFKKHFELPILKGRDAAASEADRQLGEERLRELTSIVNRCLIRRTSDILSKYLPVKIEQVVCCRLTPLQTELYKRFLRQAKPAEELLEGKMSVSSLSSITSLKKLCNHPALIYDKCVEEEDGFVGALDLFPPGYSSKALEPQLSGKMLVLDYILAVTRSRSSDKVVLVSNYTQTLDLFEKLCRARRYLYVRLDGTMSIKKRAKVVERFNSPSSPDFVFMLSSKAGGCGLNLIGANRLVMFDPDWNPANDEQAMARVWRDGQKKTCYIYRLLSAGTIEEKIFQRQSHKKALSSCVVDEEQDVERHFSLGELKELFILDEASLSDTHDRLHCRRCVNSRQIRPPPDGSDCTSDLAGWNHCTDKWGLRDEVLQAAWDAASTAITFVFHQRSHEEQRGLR
# [5] = molecular target: T3, Probable nicotinate-nucleotide adenylyltransferase (Staphylococcus aureus (strain N315), UniProt P65502); format: functional, Staphylococcus aureus subsp. aureus N315; conditions: read-out: IC50_Mean;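 as to IC50 Mean: confirmatory dose-response retesting of NadD inhibitor hits first found in an ultra-high-throughput screen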
# [6] = molecular target: T3, Probable nicotinate-nucleotide adenylyltransferase; format: functional, Staphylococcus aureus subsp. aureus N315
# [7] = Luminescence Cell-Based Dose Retest to Confirm Inhibitors of Cancer Stem Cells. [Related pubchem assays (depositor defined):AID2717, AID2721]; format: functional; conditions: Homo sapiens
# [8] = cytotoxicity in HMLE control line with eGFP shRNA, dose response, counter-screen for HMLE_sh_ECad selective toxicity project, cell-based, HMLE_sh_eGFP, luminescence (AID 463074); format: functional, Homo sapiens;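 also: HMLE human mammary epithelial cells expressing control shRNA against eGFP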
# [9] = Counterscreen for activators of the function of SWI/SNF related, matrix associated, actin dependent regulator of chromatin, subfamily a, member 2 (SMARCA2, BRM): Luminescence-based cell-based high throughput dose response assay to identify non-selective compounds using the VP16 reporter assay.; format: functional
# [10] = molecular target: SWI/SNF-related matrix-associated actin-dependent regulator of chromatin subfamily A member 2 (Homo sapiens, UniProt P51531); test: Luminescence-based cell-based high throughput dose response assay to identify activators of the function of SWI/SNF related, matrix associated, actin dependent regulator of chromatin, subfamily a, member 2 (SMARCA2, BRM).; format: functional
# [11] = molecular target: T4, Rac GTPase-activating protein 1 (Homo sapiens, UniProt Q9H0H5); test: MgcRacGAP GTPase-activating activity inhibitors, confirmation, biochemical, ADP Hunter fluorescence, primary and confirmatory (AID 624330); format: functional
# T4 sequence (Q9H0H5 whole entry): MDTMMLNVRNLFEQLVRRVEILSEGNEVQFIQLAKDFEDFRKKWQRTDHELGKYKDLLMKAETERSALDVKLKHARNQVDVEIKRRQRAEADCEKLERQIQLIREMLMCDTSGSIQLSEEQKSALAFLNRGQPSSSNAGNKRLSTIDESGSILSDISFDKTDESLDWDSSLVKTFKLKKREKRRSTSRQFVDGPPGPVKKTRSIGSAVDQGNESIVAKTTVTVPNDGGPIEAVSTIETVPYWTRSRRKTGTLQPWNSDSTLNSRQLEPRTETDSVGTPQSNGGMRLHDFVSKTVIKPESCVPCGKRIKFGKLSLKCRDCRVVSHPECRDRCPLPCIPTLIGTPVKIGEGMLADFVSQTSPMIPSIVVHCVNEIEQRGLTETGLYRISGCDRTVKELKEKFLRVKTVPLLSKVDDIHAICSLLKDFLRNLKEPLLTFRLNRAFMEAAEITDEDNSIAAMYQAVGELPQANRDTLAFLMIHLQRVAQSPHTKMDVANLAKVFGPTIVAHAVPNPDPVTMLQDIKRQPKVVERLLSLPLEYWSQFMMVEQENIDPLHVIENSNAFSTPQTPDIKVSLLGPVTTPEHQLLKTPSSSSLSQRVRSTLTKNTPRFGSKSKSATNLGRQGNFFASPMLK
# [12] = molecular target: Heat shock protein HSP 90-alpha (Homo sapiens, UniProt P07900); format: functional, organism-based
# [13] = molecular target: Protein Wnt-3a (Mus musculus, UniProt P27467); test: Wnt3a-driven reporter signaling inhibition, dose response, selectivity assay for Gli-SUFU antagonist project, Wnt-LIGHT cells, luminescence (AID 651570); format: functional; conditions: read-out: IC50_Mean;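 also: Wnt-LIGHT reporter cells stimulated with conditioned medium from Wnt3a-producing cells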
# [14] = molecular target: T5, DNA repair protein RAD52 homolog (Homo sapiens, UniProt P43351); format: functional, biochemical
# T5 sequence (P43351 whole entry): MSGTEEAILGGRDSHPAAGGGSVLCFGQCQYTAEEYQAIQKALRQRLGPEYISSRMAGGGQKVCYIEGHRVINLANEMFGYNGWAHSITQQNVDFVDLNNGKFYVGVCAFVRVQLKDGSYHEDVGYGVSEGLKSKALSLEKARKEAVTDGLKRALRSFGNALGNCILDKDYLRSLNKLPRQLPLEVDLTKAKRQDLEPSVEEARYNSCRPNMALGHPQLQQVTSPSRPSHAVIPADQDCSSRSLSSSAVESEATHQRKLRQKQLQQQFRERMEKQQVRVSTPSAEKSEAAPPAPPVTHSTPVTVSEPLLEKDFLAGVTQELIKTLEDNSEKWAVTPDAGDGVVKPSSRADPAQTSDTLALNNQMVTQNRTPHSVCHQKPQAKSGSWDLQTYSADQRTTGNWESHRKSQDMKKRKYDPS
# [15] = molecular target: T6, Heat shock factor protein 1 (Mus musculus, UniProt P38532); test: inhibition of MG132-induced HSE-luciferase signal, confirmation, cell-based, NIH3T3, luminescence, dose retest (AID 2382); format: functional;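 also: NIH3T3 fibroblasts with HSF1-driven luciferase reporter stressed by proteasome inhibitor MG132; luminescence from HSF1-driven luciferase expression after 8 hours of MG132 stress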
# T6 sequence (P38532 whole entry): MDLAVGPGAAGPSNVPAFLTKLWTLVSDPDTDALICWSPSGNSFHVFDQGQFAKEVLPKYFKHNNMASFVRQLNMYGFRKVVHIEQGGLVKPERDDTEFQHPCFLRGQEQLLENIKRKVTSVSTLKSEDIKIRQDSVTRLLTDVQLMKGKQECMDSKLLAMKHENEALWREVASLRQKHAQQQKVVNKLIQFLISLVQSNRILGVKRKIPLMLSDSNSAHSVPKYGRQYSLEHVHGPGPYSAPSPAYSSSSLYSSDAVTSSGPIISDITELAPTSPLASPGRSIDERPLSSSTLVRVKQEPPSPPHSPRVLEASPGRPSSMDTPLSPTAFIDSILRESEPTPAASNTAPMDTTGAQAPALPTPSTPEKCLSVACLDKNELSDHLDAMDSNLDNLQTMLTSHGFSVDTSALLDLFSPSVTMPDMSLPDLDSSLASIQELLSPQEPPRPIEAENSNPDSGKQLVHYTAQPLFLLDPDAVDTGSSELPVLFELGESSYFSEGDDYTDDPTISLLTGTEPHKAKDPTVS
# T3 sequence (P65502 whole entry): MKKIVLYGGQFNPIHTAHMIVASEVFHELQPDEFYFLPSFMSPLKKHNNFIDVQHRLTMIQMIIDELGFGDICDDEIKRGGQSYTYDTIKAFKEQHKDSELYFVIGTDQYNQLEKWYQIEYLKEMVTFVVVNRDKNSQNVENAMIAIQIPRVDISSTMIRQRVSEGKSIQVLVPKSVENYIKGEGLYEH
# Arf-GAP with SH3 domain, ANK repeat and PH domain-containing protein 1, sequence (Q9ULH1 whole entry, the tested form may be a part): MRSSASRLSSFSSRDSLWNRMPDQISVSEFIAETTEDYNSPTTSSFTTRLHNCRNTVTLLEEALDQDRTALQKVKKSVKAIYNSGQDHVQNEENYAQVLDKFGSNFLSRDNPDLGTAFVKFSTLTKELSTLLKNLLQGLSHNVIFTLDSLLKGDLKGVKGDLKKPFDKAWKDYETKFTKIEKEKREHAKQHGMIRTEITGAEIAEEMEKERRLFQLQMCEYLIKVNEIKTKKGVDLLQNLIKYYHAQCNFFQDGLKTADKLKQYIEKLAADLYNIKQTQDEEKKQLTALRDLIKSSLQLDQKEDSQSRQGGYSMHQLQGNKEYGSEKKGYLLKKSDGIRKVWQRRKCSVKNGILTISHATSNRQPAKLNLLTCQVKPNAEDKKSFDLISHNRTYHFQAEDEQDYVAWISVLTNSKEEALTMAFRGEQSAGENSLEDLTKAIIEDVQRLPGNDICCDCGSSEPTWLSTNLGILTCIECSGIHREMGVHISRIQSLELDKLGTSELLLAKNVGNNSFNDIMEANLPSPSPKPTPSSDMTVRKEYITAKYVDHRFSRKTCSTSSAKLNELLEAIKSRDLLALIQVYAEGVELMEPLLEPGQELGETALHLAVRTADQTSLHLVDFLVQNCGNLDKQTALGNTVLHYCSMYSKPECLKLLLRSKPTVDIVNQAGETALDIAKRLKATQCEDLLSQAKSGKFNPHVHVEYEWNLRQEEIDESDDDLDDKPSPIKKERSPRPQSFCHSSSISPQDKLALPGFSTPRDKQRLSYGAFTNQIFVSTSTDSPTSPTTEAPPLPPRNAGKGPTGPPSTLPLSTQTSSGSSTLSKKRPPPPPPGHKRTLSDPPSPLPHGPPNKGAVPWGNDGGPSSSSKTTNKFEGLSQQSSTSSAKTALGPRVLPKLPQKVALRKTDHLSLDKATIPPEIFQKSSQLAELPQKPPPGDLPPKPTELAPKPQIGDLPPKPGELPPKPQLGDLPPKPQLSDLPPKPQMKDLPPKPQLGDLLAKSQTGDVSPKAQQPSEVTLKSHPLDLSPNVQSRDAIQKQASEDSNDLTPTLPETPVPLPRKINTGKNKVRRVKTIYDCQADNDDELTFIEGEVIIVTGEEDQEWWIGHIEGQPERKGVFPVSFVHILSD
# Protein Wnt-3a, sequence (P27467 whole entry): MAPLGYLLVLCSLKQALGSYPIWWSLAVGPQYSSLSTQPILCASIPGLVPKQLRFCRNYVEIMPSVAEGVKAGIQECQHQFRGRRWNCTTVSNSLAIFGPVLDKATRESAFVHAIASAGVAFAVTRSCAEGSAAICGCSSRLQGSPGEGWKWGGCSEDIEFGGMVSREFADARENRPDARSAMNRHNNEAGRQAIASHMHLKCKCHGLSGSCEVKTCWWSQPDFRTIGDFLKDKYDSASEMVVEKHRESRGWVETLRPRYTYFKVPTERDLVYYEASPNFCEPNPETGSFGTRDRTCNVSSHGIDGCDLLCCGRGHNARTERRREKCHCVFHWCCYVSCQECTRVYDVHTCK
# SWI/SNF-related matrix-associated actin-dependent regulator of chromatin subfamily A member 2, sequence (P51531 whole entry): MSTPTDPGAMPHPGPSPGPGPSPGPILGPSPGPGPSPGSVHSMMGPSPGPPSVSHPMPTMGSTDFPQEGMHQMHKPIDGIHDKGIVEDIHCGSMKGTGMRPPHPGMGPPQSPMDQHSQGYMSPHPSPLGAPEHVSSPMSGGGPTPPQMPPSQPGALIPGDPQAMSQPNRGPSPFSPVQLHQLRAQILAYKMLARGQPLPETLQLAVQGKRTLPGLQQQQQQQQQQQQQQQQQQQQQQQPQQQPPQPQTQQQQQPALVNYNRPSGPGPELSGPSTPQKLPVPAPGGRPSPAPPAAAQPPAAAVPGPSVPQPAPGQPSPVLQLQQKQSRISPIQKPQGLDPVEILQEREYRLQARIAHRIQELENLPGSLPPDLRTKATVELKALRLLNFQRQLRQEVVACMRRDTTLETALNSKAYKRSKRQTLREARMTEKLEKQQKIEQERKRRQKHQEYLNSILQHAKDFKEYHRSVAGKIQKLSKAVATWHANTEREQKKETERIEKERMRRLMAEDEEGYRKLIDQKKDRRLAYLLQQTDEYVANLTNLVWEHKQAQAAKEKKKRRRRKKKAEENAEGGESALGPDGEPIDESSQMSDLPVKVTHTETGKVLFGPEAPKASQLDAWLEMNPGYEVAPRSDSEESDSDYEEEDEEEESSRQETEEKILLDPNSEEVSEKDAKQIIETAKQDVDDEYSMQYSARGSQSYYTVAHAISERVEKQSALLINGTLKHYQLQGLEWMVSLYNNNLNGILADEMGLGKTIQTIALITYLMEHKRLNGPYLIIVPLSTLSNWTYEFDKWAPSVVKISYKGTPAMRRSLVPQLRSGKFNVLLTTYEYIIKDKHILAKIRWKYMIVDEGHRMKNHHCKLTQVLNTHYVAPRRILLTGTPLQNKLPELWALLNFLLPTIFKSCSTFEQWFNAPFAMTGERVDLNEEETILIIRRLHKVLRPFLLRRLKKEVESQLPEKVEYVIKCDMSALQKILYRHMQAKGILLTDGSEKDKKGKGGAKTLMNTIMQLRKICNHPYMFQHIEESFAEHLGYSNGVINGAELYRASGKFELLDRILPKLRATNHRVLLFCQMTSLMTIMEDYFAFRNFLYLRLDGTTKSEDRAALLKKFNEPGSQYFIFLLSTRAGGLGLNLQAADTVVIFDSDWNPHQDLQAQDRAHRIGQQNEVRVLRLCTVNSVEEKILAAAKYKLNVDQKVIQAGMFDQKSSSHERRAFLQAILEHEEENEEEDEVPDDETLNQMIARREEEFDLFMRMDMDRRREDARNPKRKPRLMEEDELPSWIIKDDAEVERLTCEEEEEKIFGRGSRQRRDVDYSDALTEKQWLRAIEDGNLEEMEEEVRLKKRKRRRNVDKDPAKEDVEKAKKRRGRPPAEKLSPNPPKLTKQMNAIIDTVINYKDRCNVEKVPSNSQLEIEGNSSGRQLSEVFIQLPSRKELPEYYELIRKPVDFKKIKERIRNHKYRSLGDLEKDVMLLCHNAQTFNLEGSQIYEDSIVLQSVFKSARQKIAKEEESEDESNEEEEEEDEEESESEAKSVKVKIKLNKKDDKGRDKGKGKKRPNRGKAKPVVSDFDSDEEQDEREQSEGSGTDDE
smiles,measurement,setting,value
COc1ccc(-n2nnnc2SCC(=O)c2ccc(OC)c(OC)c2)cc1,IC50,[1],> 47.1 µM (inactive)
same,IC50,[2],33 µM (inactive)
same,EC50,[3],> 53 µM (inactive)
CCN(CC)CCOc1c(Br)ccc2c1sc1nc3n(c(=O)c12)CCC3,AC50,[4],8.15 µM (active)
CCOC(=O)c1ccccc1N1C(=O)C2Sc3nc(O)sc3C(/C=C/c3ccccc3)C2C1=O (configuration not stated),IC50,[5],45.9 µM (active)
same,IC50,[6],12.2 µM (active)
Cc1ccc(N2C(=O)CC(N(CCc3ccccc3)C(=S)Nc3ccc(N(C)C)cc3)C2=O)cc1 (configuration not stated),IC50,[5],77.7 µM (active)
same,AC50,[7],5.65 µM (active)
same,AC50,[8],154 µM (active)
same,IC50,[6],36.8 µM (active)
O=C(Nc1nnc(SCc2ccc(F)cc2)s1)C1Cc2ccccc2CN1C(=O)c1ccco1 (configuration not stated),IC50,[5],34 µM (active)
same,IC50,[6],13.4 µM (active)
C=COC(=O)c1sc2nc(C)cc(C)c2c1N,EC50,[9],> 91.1 µM (inactive)
same,EC50,[10],> 91.1 µM (inactive)
COC(=O)c1cc(NC(=O)c2ccc(Cn3cc(Cl)cn3)o2)cc(C(=O)OC)c1,IC50,[2],41 µM (inactive)
O=C1C=CC(=O)N1c1ccc(Nc2ccccc2)cc1,IC50,[11],27 µM (active)
same,AC50,[12],1.85 µM (active)
CN1/C(=C\C=N\c2ccccc2)C(C)(C)c2ccccc21,IC50,[13],7.05 µM (active)
CCN(CC)CCN1CCN(c2cncc(-c3cccc(N)c3)n2)CC1,AC50,[4],100 µM (inactive)
same,AC50,[14],1.56 µM (active)
O=C(NCCNc1ccnc2cc(Cl)ccc12)c1ccccc1F,IC50,[13],3.93 µM (active)
same,EC50,[15],39.7 µM (active)
